Experimental data taken from US12011433B2 (UNIVERSITÁ DEGLI STUDI DI BARI “ALDO MORO”, priority 2016, dated 2024).

Key:
Iba-1 = test: microglial activation in LPS-treated mice, Iba-1 immunoreactivity and immunoblotting; assay type: in vivo
Procedure: The protein concentration in the supernatant was spectrophotometrically determined by Bradford's protein assay (Bradford, 1976). […] Proteins (25 μg/lane) and prestained standards (BioRad Laboratories, Hercules, CA, USA) were loaded on 7% or 12% SDS precast polyacrylamide gels (BioRad Laboratories). After electrophoresis, the resolved proteins were transferred from the gel to nitrocellulose membranes. A blotting buffer [20 mMTris/150 mM glycine, pH=8.0, 20% (v/v) methanol] was used for gel and membrane saturation and blotting. […] Bands were visualized by chemiluminescence detection (Invitrogen, Milan, Italy). The β-actin level was used as a protein loading control. For tissue analysis, obtained bands were normalized to the level of β-actin performed for each cerebral area tested. For cell cultures the bands were normalized to the β-actin level in each experimental condition. […] VM in all the Figures) once a day for 10 days. […] On the seventh day, mice were anesthetized with tribromoethanol (250 mg/Kg, i.p.) and positioned in a stereotactic apparatus (Kopf Instruments, Tujunga, CA, USA). […] Immunohistochemistry was performed following a standard avidin-biotin complex procedure. […]

COX-1 = COX-1 (Mus musculus (Mouse), UniProt P22437); test: COX-1 expression in LPS-treated BV2 microglial cells, western blotting; assay type: cell-based
Procedure: Cells were then incubated for different times at 37° C. with LPS, as pro-inflammatory stimulus. Experiments included cells grown in medium alone (control).
(§1) The tissue and cell culture lysates were vortexed for 15-20 s and, then, centrifuged at 12,800×g for 20 min. The protein concentration in the supernatant was spectrophotometrically determined by Bradford's protein assay (Bradford, 1976). Protein samples were diluted with sample buffer (0.5 M Tris-HCl pH=6.8, 10% glycerol, 10% (w/v) SDS, 5% 2-mercaptoethanol, 0.05% (w/v) bromophenol blue) and then boiled for 3 min. Proteins (25 μg/lane) and prestained standards (BioRad Laboratories, Hercules, CA, USA) were loaded on 7% or 12% SDS precast polyacrylamide gels (BioRad Laboratories).
(§2) After electrophoresis, the resolved proteins were transferred from the gel to nitrocellulose membranes. A blotting buffer [20 mMTris/150 mM glycine, pH=8.0, 20% (v/v) methanol] was used for gel and membrane saturation and blotting. Then, membranes were incubated in the dark with 1 μg/mL mouse monoclonal antibody (MoAb) anti-COX-1 and rabbit polyclonal Ab anti-COX-2 (1:1000) (both from AbCam, Cambridge, UK), rabbit polyclonal Ab anti p-IkB-α (1:200), mouse polyclonal Ab anti β-actin (1:500) (all from Santa Cruz Biotechnology), mouse MoAb anti-glial fibrillary acidic protein (GFAP) (1:200) and mouse mAb anti-ionized calcium-binding adapter molecule-1 (Iba-1) (1:200) (both from Merck Millipore) overnight at 4° C. The membranes were washed with 0.1% Tween 20-PBS (for 20 min, 3 times) and then incubated with the secondary antibody diluted 1:2000 for 60 min. Bands were visualized by chemiluminescence detection (Invitrogen, Milan, Italy). The β-actin level was used as a protein loading control. For tissue analysis, obtained bands were normalized to the level of β-actin performed for each cerebral area tested. For cell cultures the bands were normalized to the β-actin level in each experimental condition.

COX-2 = COX-2 (Mus musculus (Mouse), UniProt Q05769); test: COX-2 expression in brain regions of LPS-treated mice, immunoblotting; assay type: in vivo; conditions: for COX-2 expression reduction (%): mofezolac 6 mg/kg i.p.
Procedure: Substantia nigra pars compacta (SNpc), Hippocampus, Frontal lobe and Caudate from mice brains were minced in ice-cold PBS, washed and then homogenized in a buffer containing lysis buffer (50 mM Tris pH 8, 0.02 g/mL NaCl, 0.2% SDS, 1% Triton-X, 4 U/ml aprotinin, 2 mM leupeptin, 100 mM phenylmethanesulfonyl fluoride).
as §1, §2
On the seventh day, mice were anesthetized with tribromoethanol (250 mg/Kg, i.p.) and positioned in a stereotactic apparatus (Kopf Instruments, Tujunga, CA, USA). […] Sterotaxic injections coordinates were: 2.3 mm dorsal/ventral, 1.0 mm lateral, and 0.5 mm anterior/posterior from the bregma.

PGE2 = PGE2 release in LPS-stimulated BV2 microglial cells, competitive binding immunoassay; assay type: cell-based; conditions: for PGE2 release (ng/ml) at 48 h: LPS-stimulated BV2 cells; for PGE2 production reduction: LPS-treated BV2 cells
Procedure: Microglial cells were cultured in 6-well plates at a density of 3×10^6 cells/well. […] The cultures were maintained at 37° C. for 24 and 48 h in a humidified air containing a 5% CO2. PGE2 levels were determined in the supernatant using a competitive binding immunoassay (Cayman Chemical, Ann Arbor, MI, USA) following the manufacturer's instructions. Unstimulated cells were included as a control. PGE2 amount determination in the brain was performed in the tissue extracts, according to the manufacturer's instructions. The optical density was measured at λ=405-420 nm with precision microplate reader and the amount of PGE2 (ng/mL) was calculated using a PGE2 standard curve.

p-IkBα = test: NF-kB activation (p-IkBα) in brain areas of LPS-treated mice, immunoblotting; assay type: in vivo; conditions: all tested brain areas of LPS-treated mice
Procedure: The protein concentration in the supernatant was spectrophotometrically determined by Bradford's protein assay (Bradford, 1976). […] Proteins (25 μg/lane) and prestained standards (BioRad Laboratories, Hercules, CA, USA) were loaded on 7% or 12% SDS precast polyacrylamide gels (BioRad Laboratories). After electrophoresis, the resolved proteins were transferred from the gel to nitrocellulose membranes. A blotting buffer [20 mMTris/150 mM glycine, pH=8.0, 20% (v/v) methanol] was used for gel and membrane saturation and blotting. […] Bands were visualized by chemiluminescence detection (Invitrogen, Milan, Italy). The β-actin level was used as a protein loading control. For tissue analysis, obtained bands were normalized to the level of β-actin performed for each cerebral area tested. For cell cultures the bands were normalized to the β-actin level in each experimental condition. […] VM in all the Figures) once a day for 10 days. […] On the seventh day, mice were anesthetized with tribromoethanol (250 mg/Kg, i.p.) and positioned in a stereotactic apparatus (Kopf Instruments, Tujunga, CA, USA).

COc1ccc(-c2noc(CC(=O)O)c2-c2ccc(OC)cc2)cc1 [mofezolac, 2-(3,4-bis(4-methoxyphenyl)isoxazol-5-yl)acetic acid]
Iba-1 levels (Iba-1; immunoblotting, mofezolac + LPS vs LPS alone): significantly reduced
Iba-1 immunoreactivity (Iba-1; immunohistochemistry, LPS-injected mice, mofezolac 6 mg/kg i.p., all the tested brain areas): reduction of Iba-1 immunoreactivity
COX-1 expression levels (COX-1; BV2 cells, 48 h of incubation with LPS, 1 h pre-treated): significantly reduced
COX-1 expression reduction (COX-1; LPS-activated BV2 cells, independently from its concentration (0.1 and 0.5 μM)): 78%
COX-2 expression reduction (%) (COX-2; Caudate): 0%
COX-2 expression reduction (%) (COX-2; Frontal lobe): 0%
COX-2 expression reduction (%) (COX-2; Hippocampus): 0%
COX-2 expression reduction (%) (COX-2; Substantia nigra): 0%
effect on COX-2 modulation (COX-2; all tested brain regions): no effect
PGE2 release (ng/ml) at 48 h (PGE2; 0.1 μM inhibitor + LPS): 0.06 ng/mL
PGE2 release (ng/ml) at 48 h (PGE2; 0.5 μM inhibitor + LPS): 0.03 ng/mL
PGE2 production reduction (PGE2; at 0.5 μM as printed in the text): 94%
PGE2 production reduction (PGE2; at 1 μM as printed in the text): 97%
p-IkBα (p-IkBα): significant reduction
